The values that follow come from ChEMBL document CHEMBL5357082, “Identification and Optimization of Small Molecule Pyrazolopyrimidine TLR7 Agonists for Applications in Immuno-oncology” (ACS Med Chem Lett, 2024).

One data set addresses T1, Cytochrome P450 1A2 (Homo sapiens, UniProt P05177).
T1 sequence (P05177 whole entry): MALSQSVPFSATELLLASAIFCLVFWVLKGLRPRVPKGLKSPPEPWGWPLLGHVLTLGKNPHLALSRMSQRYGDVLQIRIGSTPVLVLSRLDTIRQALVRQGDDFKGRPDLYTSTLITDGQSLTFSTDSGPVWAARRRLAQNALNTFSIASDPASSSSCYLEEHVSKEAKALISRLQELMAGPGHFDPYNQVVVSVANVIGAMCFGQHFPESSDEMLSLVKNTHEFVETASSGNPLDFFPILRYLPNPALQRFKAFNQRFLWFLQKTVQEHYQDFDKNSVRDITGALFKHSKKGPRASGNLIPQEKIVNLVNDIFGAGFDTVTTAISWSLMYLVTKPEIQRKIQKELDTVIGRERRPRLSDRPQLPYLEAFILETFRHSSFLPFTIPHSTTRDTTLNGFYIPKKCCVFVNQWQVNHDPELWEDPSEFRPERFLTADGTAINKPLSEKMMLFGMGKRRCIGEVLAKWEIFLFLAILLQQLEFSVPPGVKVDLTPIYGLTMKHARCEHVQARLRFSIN
Description: Inhibition of CYP1A2 (unknown origin). It counts as ADME.

The nature of data set [1]: Permeability of compound at pH 7.4 by PAMPA. It counts as ADME. The note with it: read-out: permeability. (PAMPA measures passive passage across an artificial lipid membrane.)
Data set [2] deals with T2, Cytochrome P450 3A4 (Homo sapiens, UniProt P08684). As to the kind of experiment: Inhibition of CYP3A4 (unknown origin) using BFC as substrate preincubated with compound followed by substrate addition at 5 mins. It counts as ADME.
Data set [3] is described as follows: Metabolic stability in human liver microsomes assessed as compound remaining at 0.5 uM incubated for 10 mins in presence of NADPH by UV absorbance based assay. Conditions: read-out: Stability. The class given is ADME, Microsome. For orientation: Liver microsomes are a subcellular fraction often used to study metabolism.
In the next data set the target is Cytochrome P450 2D6 (Homo sapiens, UniProt P10635). As to the kind of experiment: Inhibition of CYP2D6 (unknown origin). It counts as ADME.
Data set [4] concerns the target T3, Toll-like receptor 7 (Mus musculus, UniProt P58681).
T3 sequence (P58681 whole entry): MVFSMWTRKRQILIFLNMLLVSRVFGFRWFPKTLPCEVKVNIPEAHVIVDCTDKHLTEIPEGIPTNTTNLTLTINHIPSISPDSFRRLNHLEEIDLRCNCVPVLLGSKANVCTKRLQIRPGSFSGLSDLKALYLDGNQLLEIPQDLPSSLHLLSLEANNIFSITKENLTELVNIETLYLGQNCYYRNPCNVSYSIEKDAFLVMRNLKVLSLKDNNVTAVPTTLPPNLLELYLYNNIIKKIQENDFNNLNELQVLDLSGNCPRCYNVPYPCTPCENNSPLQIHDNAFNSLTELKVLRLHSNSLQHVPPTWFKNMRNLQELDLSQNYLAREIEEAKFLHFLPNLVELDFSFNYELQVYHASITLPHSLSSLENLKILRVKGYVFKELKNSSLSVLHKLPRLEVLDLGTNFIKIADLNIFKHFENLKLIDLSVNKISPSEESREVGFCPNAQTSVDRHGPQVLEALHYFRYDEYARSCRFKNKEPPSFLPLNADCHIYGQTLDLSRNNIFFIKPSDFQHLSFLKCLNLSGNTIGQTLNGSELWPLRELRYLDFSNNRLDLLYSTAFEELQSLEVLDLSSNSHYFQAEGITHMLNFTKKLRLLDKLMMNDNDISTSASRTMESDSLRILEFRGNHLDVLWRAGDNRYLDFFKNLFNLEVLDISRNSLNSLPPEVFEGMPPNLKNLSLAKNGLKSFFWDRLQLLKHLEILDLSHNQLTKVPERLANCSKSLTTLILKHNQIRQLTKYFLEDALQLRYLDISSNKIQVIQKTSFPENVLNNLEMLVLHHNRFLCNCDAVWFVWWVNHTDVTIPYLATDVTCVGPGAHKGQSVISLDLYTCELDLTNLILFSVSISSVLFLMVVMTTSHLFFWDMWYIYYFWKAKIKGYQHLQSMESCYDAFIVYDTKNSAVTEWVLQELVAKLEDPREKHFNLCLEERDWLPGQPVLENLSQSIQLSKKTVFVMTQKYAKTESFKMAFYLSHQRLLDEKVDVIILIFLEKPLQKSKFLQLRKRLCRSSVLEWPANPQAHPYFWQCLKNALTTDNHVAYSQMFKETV
As to the kind of experiment: (§1) Agonist activity at mouse TLR7.

The next data set deals with Cytochrome P450 2C9 (Homo sapiens, UniProt P11712). As to the kind of experiment: Inhibition of CYP2C9 (unknown origin). It counts as ADME.
The target of a further data set is T4, Cytochrome P450 2C8 (Homo sapiens, UniProt P10632).
T4 sequence (P10632 whole entry): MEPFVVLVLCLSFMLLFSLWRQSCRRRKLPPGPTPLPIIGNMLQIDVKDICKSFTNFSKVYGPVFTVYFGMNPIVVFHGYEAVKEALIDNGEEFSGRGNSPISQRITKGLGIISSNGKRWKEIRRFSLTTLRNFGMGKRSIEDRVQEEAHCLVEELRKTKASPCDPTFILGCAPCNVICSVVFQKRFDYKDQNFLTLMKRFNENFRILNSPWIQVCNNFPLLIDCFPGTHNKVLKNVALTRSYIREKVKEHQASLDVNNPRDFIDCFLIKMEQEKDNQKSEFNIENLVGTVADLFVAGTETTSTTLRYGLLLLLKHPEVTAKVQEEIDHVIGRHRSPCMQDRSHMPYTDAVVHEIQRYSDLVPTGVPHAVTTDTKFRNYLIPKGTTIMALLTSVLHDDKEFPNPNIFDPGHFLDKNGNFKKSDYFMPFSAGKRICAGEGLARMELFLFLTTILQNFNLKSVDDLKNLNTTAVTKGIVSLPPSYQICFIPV
As to the kind of experiment: Inhibition of CYP2C8 (unknown origin). The class given is ADME.

The target in data set [5] is T5, Toll-like receptor 7 (Homo sapiens, UniProt Q9NYK1).
T5 sequence (Q9NYK1 whole entry): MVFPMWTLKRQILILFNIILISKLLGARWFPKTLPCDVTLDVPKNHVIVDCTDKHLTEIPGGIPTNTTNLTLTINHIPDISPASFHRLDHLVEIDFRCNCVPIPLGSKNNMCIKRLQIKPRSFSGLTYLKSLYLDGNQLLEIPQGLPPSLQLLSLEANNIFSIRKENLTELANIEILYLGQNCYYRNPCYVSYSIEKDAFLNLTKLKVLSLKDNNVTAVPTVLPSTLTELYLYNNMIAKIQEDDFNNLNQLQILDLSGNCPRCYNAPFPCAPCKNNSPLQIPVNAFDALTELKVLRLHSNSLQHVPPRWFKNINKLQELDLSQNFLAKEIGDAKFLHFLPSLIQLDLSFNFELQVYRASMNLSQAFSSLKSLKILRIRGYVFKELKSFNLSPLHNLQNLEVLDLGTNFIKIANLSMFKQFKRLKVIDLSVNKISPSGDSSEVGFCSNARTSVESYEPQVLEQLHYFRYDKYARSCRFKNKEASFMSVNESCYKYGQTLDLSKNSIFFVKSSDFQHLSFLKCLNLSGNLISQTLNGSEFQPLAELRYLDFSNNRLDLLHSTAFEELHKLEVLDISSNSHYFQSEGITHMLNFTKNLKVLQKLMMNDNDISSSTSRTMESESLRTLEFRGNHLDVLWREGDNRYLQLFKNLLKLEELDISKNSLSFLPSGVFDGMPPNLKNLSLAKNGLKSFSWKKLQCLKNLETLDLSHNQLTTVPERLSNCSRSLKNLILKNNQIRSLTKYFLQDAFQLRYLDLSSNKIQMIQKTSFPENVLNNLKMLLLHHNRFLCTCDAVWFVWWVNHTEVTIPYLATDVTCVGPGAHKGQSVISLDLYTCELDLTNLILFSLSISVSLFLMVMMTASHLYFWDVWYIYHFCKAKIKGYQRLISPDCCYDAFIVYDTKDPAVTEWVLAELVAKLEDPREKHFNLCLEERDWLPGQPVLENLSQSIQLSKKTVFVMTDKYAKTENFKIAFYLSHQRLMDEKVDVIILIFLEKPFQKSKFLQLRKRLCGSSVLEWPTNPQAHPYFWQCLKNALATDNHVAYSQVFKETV
Description: Agonist activity at human TLR7 in HEK-Blue hTLR7 cells harboring SEAP reporter transgene incubated for 18 hrs by quanti-blue reagent based assay. It counts as cell-based.

Data set [6] in a line: Cytotoxicity against PHA-activated T-cells (unknown origin) assessed as inhibition of IL-2 induced cell proliferation measured after 72 hrs by MTS assay. It counts as toxicity, cell-based. Background: Tetrazolium assays rely on reduction of a dye to a coloured formazan, in cell work by metabolically active cells.
Data set [7] is described as follows: Metabolic stability in mouse liver microsomes assessed as compound remaining at 0.5 uM incubated for 10 mins in presence of NADPH by UV absorbance based assay. Conditions: read-out: Stability. The class given is ADME, Microsome.
Data set [8] concerns the target T2, Cytochrome P450 3A4. As to the kind of experiment: Inhibition of CYP3A4 (unknown origin) using BFC as substrate. The class given is ADME.
The target in data set [9] is T2, Cytochrome P450 3A4. Description: Inhibition of CYP3A4 (unknown origin) using BFC as substrate preincubated with compound followed by substrate addition at 30 mins. The class given is ADME.
The target of data set [10] is Voltage-gated inwardly rectifying potassium channel KCNH2 (Homo sapiens, UniProt Q12809). As to the kind of experiment: Inhibition of hERG. The class given is toxicity.
The target in the next data set is Cytochrome P450 2C19 (Homo sapiens, UniProt P33261). Description: Inhibition of CYP2C19 (unknown origin). It counts as ADME.
Data set [11] has as its target T6, Toll-like receptor 7 (Mus musculus) (UniProt P58681).
T6 sequence (whole entry): T3 sequence (P58681 whole entry)
Described as §1.

The structures appear in SMILES notation. The source made the active and inactive calls. The rule behind the calls is not given here.

Chain of Cytochrome P450 2D6 (P10635 whole entry): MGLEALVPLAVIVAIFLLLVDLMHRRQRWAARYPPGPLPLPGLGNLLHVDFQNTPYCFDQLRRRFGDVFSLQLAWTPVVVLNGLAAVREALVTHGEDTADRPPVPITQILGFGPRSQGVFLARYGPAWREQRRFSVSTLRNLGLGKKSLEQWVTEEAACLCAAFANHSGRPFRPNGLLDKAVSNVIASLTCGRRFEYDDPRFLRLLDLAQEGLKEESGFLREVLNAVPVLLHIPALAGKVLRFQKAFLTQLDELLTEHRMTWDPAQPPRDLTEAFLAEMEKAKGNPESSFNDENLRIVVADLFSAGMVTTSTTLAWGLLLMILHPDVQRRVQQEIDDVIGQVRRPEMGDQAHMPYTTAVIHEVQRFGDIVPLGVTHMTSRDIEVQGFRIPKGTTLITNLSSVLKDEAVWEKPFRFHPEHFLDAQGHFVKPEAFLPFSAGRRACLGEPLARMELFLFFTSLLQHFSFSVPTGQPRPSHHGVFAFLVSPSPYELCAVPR
T2 sequence (P08684 whole entry): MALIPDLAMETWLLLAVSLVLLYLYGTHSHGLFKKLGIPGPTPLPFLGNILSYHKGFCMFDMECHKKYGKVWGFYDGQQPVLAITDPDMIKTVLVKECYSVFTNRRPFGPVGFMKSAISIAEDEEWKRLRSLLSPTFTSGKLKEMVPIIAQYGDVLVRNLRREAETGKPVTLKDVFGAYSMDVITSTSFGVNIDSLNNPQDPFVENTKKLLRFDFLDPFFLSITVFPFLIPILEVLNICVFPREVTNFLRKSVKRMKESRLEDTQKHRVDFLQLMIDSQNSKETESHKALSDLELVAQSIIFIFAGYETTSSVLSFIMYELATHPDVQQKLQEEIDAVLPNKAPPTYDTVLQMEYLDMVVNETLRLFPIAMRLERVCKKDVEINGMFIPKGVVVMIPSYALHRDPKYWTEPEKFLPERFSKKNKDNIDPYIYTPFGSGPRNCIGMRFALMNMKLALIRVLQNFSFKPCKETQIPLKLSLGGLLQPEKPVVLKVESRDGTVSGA
Chain of Cytochrome P450 2C19 (P33261 whole entry): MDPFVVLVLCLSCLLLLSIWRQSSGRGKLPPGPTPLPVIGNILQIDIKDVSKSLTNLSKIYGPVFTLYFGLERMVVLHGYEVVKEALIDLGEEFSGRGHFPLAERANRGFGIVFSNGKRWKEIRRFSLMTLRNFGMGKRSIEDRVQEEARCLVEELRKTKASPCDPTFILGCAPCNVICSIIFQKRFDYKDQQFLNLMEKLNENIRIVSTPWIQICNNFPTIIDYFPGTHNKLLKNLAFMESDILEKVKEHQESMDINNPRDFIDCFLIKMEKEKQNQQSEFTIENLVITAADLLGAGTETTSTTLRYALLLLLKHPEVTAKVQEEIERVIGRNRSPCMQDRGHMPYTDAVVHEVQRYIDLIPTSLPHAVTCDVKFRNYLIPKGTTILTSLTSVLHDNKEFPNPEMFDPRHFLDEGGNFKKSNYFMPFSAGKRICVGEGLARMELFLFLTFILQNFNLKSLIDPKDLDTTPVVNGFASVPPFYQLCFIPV
Chain of Cytochrome P450 2C9 (P11712 whole entry): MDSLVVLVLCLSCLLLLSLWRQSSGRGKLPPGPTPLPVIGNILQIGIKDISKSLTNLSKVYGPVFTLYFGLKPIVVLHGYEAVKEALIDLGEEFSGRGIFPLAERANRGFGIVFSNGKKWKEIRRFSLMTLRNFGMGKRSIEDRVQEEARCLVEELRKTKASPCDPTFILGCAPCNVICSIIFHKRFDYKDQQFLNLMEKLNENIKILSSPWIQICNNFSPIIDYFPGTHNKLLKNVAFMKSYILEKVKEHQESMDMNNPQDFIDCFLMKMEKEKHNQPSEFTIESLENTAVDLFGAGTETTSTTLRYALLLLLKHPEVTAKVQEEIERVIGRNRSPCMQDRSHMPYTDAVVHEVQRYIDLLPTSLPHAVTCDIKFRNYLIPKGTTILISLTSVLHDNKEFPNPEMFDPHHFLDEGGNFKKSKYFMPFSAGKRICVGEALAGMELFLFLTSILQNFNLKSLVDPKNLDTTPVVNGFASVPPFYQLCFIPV
Chain of Voltage-gated inwardly rectifying potassium channel KCNH2 (Q12809 whole entry): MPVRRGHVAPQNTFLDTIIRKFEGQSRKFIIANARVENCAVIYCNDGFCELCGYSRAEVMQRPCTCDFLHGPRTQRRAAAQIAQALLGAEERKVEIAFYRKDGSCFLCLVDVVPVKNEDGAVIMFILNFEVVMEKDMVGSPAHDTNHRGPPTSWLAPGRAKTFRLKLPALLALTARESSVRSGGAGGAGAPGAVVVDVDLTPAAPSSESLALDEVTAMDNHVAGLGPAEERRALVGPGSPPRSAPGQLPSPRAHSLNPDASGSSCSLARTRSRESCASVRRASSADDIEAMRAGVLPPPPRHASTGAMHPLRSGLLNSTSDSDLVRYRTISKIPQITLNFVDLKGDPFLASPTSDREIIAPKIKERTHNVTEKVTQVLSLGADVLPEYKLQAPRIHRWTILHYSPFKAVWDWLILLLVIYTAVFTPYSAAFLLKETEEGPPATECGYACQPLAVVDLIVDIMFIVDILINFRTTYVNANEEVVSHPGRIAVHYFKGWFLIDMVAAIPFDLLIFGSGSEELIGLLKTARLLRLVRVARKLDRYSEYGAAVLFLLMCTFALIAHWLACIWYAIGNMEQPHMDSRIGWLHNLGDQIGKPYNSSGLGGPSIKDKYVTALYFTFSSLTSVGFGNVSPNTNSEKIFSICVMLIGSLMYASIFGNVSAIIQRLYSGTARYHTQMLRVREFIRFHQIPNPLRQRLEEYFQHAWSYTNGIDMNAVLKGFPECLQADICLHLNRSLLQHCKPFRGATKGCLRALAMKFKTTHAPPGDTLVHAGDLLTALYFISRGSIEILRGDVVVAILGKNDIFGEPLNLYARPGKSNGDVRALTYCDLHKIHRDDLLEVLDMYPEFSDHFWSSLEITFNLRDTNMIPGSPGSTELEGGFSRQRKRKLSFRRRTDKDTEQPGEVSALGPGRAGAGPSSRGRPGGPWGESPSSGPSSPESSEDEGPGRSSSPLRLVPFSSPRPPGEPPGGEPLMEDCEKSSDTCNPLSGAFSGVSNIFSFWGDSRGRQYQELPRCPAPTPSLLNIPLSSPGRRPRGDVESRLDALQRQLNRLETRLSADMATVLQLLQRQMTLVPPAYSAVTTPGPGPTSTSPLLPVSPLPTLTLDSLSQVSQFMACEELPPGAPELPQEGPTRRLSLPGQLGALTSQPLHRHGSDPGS

Regarding `CCC[C@@H](CCO)Nc1nc(N)nc2cnn(Cc3ncc(C4CCN(C(C)C)CC4)cc3OC)c12`, the IC50 against Cytochrome P450 1A2, on Cytochrome P450 3A4 [2], against Cytochrome P450 2D6, against Cytochrome P450 2C9, on Cytochrome P450 2C8 and against Cytochrome P450 3A4 [8] was above 20 µM in each case. The IC50 (in general, the concentration that gives 50% inhibition) on Cytochrome P450 3A4 [9] is above 20 µM; in data set [10] it was above 50 µM; against Cytochrome P450 2C19, above 20 µM. For the same compound, in data set [1], the Papp was determined as 93 ×10⁻⁶ cm/s. For the same compound, the remaining at 10 min, 0.5 µM amounted to 80% in data set [3] and 78% in data set [7]. Also, the EC50 – broadly, the concentration that produces a half-maximal response – on Toll-like receptor 7 [4] was determined as 0.041 µM; at Toll-like receptor 7 [5] it was 0.018 µM. The half-maximal inhibitory concentration (IC50) at 72 h in data set [6] is above 25 µM.

Turning to `CCC[C@H](CCO)Nc1nc(N)nc2cnn(Cc3ncc(C4CCN(C5CCOCC5)CC4)cc3OC)c12`, the IC50 at Cytochrome P450 1A2, at Cytochrome P450 3A4 [2], against Cytochrome P450 2D6, on Cytochrome P450 2C9, at Cytochrome P450 2C8 and against Cytochrome P450 3A4 [8] was above 20 µM in each case. For the same compound, the concentration for half-maximal inhibition (IC50) on Cytochrome P450 3A4 [9] is above 20 µM; in data set [10] it was above 50 µM; against Cytochrome P450 2C19, above 20 µM. Also, the figures for the remaining at 10 min, 0.5 µM in data set [3] and in data set [7] were 67% and 95%, respectively. Also, the result in [11] was inactive. It took 0.272 µM to reach a half-maximal effect on Toll-like receptor 7 [5] (EC50). Further, the 50% inhibitory concentration (IC50) at 72 h in data set [6] is above 25 µM.

In the case of `CCC[C@@H](CCO)Nc1nc(N)nc2cnn(Cc3ncc(C4CCN(CC#N)CC4)cc3OC)c12`, the IC50 at Cytochrome P450 1A2, at Cytochrome P450 3A4 [2], on Cytochrome P450 2D6, at Cytochrome P450 2C9, against Cytochrome P450 2C8 and at Cytochrome P450 3A4 [8] was above 20 µM throughout. For the same compound, the IC50 is above 20 µM on Cytochrome P450 3A4 [9], 30.2 µM in data set [10] and above 20 µM on Cytochrome P450 2C19. Further, the remaining at 10 min, 0.5 µM worked out at 65% in data set [3] and 67% in data set [7]. In addition, the outcome in data set [11] was inactive. This compound registered an EC50 at Toll-like receptor 7 [5] of 0.145 µM. For the same compound, the half-inhibitory concentration (IC50) at 72 h in data set [6] is above 25 µM.

As for `CCC[C@@H](CCO)Nc1nc(N)nc2cnn(Cc3ncc(C4CCN(C)CC4)cc3OC)c12`, the 50% inhibitory concentration (IC50) against Cytochrome P450 1A2, on Cytochrome P450 3A4 [2], against Cytochrome P450 2D6, on Cytochrome P450 2C9, at Cytochrome P450 2C8 and on Cytochrome P450 3A4 [8] was above 20 µM throughout. Moreover, the IC50 is above 20 µM on Cytochrome P450 3A4 [9], 43 µM in data set [10] and above 20 µM against Cytochrome P450 2C19. Moreover, in data set [1], the Papp was 6.6 ×10⁻⁶ cm/s. Further, the remaining at 10 min, 0.5 µM stood at 78% in [3] and 76% in data set [7]. At Toll-like receptor 7 [4], this compound gave an EC50 of 0.076 µM. In data set [6], the IC50 at 72 h is above 25 µM.

Regarding `CCC[C@@H](CCO)Nc1nc(N)nc2cnn(Cc3ncc(C4CCNCC4)cc3OC)c12`, the IC50 at Cytochrome P450 1A2, at Cytochrome P450 3A4 [2], on Cytochrome P450 2D6, against Cytochrome P450 2C9, against Cytochrome P450 2C8 and against Cytochrome P450 3A4 [8] was above 20 µM each time. For the same compound, the results for the 50% inhibitory concentration (IC50) (on Cytochrome P450 3A4 [9]; in [10]; at Cytochrome P450 2C19) were above 20 µM, above 50 µM and above 20 µM, respectively. Also, the Papp in [1] stood at 0.9 ×10⁻⁶ cm/s. Besides, the remaining at 10 min, 0.5 µM amounted to 84% in data set [3] and 85% in [7]. For the same compound, the EC50 on Toll-like receptor 7 [4] stood at 0.512 µM; on Toll-like receptor 7 [5], 0.163 µM. For the same compound, the IC50 at 72 h in data set [6] was above 25 µM.
